This note sets out measurements from PubChem BioAssay AID248 (DTP/NCI, 2004).

The structures appear in SMILES notation. Toxic doses and inconclusive results are not listed.

For this test, the system named is L1210 leukemia ip in BDF1 mice, survival T/C. The test is described as follows: NCI In Vivo Anticancer Drug Screen. Data for tumor model L1210 Leukemia (intraperitoneal) in B6D2F1 (BDF1) mice. Conditions: endpoint: mean survival time, higher = longer survival. The procedure, abridged:
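Transplanted-tumor mice were given test agent; controls received vehicle only. Survival readings from the two groups were divided (treated over control).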

[1] abbreviates: dose: 100.0 mg/kg/injection, schedule: Q04DX002 (ip), vehicle: Klucel (hydroxypropylcellulose) (HPC).
The mark [2] stands for this setting: dose: 200.0 mg/kg/injection, schedule: Q04DX002 (ip), vehicle: Klucel (hydroxypropylcellulose) (HPC).
Setting [3] is: dose: 400.0 mg/kg/injection, schedule: Q04DX002 (ip), vehicle: Klucel (hydroxypropylcellulose) (HPC).
Setting [4] is: dose: 100.0 mg/kg/injection, schedule: Q01DX001 (ip), vehicle: carboxymethylcellulose (CMC).
Setting [5] is: dose: 200.0 mg/kg/injection, schedule: Q01DX001 (ip), vehicle: carboxymethylcellulose (CMC).
Where [6] appears, read: dose: 400.0 mg/kg/injection, schedule: Q01DX001 (ip), vehicle: carboxymethylcellulose (CMC).
Where [7] appears, read: dose: 100.0 mg/kg/injection, schedule: Q01DX009 (ip), vehicle: Klucel (hydroxypropylcellulose) (HPC).
[8] abbreviates: dose: 200.0 mg/kg/injection, schedule: Q01DX009 (ip), vehicle: Klucel (hydroxypropylcellulose) (HPC).
The mark [9] stands for this setting: dose: 100.0 mg/kg/injection, schedule: Q04DX003 (ip), vehicle: saline with Tween-80.
Where [10] appears, read: dose: 200.0 mg/kg/injection, schedule: Q04DX003 (ip), vehicle: saline with Tween-80.
The mark [11] stands for this setting: dose: 400.0 mg/kg/injection, schedule: Q04DX003 (ip), vehicle: saline with Tween-80.
[12] abbreviates: dose: 100.0 mg/kg/injection, schedule: Q01DX009 (ip), vehicle: saline with Tween-80.
The mark [13] stands for this setting: dose: 200.0 mg/kg/injection, schedule: Q01DX009 (ip), vehicle: saline with Tween-80.
Where [14] appears, read: dose: 100.0 mg/kg/injection, schedule: Q01DX001 (ip), vehicle: saline.
[15] abbreviates: dose: 200.0 mg/kg/injection, schedule: Q01DX001 (ip), vehicle: saline.
[16] abbreviates: dose: 400.0 mg/kg/injection, schedule: Q01DX001 (ip), vehicle: saline.
The mark [17] stands for this setting: dose: 400.0 mg/kg/injection, schedule: Q01DX009 (ip), vehicle: saline with Tween-80.

For the compound `COC(=O)C1=C(C(=O)OC)C2C=CC1C1(C)NC(=O)C21C` (stereo not drawn), the T/C under setting [1] was 94 % of control, the T/C under setting [2] was 91 % of control and the T/C under setting [3] was 97 % of control.

With `CN(C)CCCNc1c2ccc(Cl)cc2nc2ccc(O)cc12`, the T/C (dose: 12.5 mg/kg/injection, schedule: Q04DX002 (ip), vehicle: saline) was 107 % of control and the T/C (dose: 25.0 mg/kg/injection, schedule: Q04DX002 (ip), vehicle: saline) is 115 % of control.

Turning to `Cc1nccc2c(C)c3sc4ccccc4c3cc12`, the T/C is 96 % of control (dose: 124.0 mg/kg/injection, schedule: Q01DX001 (ip), vehicle: alcohol); 110 % of control (dose: 186.0 mg/kg/injection, schedule: Q01DX001 (ip), vehicle: alcohol); 117 % of control (dose: 280.0 mg/kg/injection, schedule: Q01DX001 (ip), vehicle: alcohol); 109 % of control (dose: 320.0 mg/kg/injection, schedule: Q01DX001 (ip), vehicle: alcohol).

`FC(F)(F)c1cccc(NC(=S)SCc2ccc(Cl)cc2)c1`: the T/C (dose: 15.0 mg/kg/injection, schedule: Q04DX003 (ip), vehicle: saline) was 102 % of control; the T/C (dose: 30.0 mg/kg/injection, schedule: Q04DX003 (ip), vehicle: saline) is 102 % of control; the T/C (dose: 60.0 mg/kg/injection, schedule: Q04DX003 (ip), vehicle: saline) is 102 % of control; the T/C under setting [1] was 87 % of control; the T/C under setting [2] was 112 % of control.

For `ClSSc1c2ccccc2cc2ccccc12`, the T/C by setting is: (dose: 75.0 mg/kg/injection, schedule: Q01DX001 (ip), vehicle: carboxymethylcellulose (CMC)) 91 % of control; (dose: 150.0 mg/kg/injection, schedule: Q01DX001 (ip), vehicle: carboxymethylcellulose (CMC)) 92 % of control; (dose: 300.0 mg/kg/injection, schedule: Q01DX001 (ip), vehicle: carboxymethylcellulose (CMC)) 88 % of control.

For `O=C(O)c1cc2ccc(O)cc2oc1=O`, the T/C by setting is: under setting [4], 94 % of control; under setting [5], 94 % of control; under setting [6], 97 % of control.

Turning to `COc1ccc2nc(NC3=NCCO3)sc2c1`, the T/C under setting [7] is 98 % of control; the T/C under setting [8] was 94 % of control; the T/C (dose: 400.0 mg/kg/injection, schedule: Q01DX009 (ip), vehicle: Klucel (hydroxypropylcellulose) (HPC)) is 93 % of control.

In the case of `CCC(=N\N=C(N)N)/C(C)=N\N=C(N)N`, the T/C by setting is: (dose: 15.0 mg/kg/injection, schedule: Q01DX Z (ip), vehicle: saline) 93 % of control; (dose: 30.0 mg/kg/injection, schedule: Q01DX Z (ip), vehicle: saline) 98 % of control; (dose: 120.0 mg/kg/injection, schedule: Q01DX Z (ip), vehicle: saline) 121 % of control.

`Cn1c(=O)c2ccccc2n(C)c1=O`: the T/C is, setting by setting: (dose: 100.0 mg/kg/injection, schedule: Q04DX003 (ip), vehicle: Klucel (hydroxypropylcellulose) (HPC)) 96 % of control; (dose: 200.0 mg/kg/injection, schedule: Q04DX003 (ip), vehicle: Klucel (hydroxypropylcellulose) (HPC)) 102 % of control; (dose: 400.0 mg/kg/injection, schedule: Q04DX003 (ip), vehicle: Klucel (hydroxypropylcellulose) (HPC)) 100 % of control.

For `COC(=O)NC1CC2C=CC1C1C=CC21` (stereo not drawn), the T/C is 92 % of control under setting [9], 91 % of control under setting [10] and 100 % of control under setting [11].

Consider `CC(C)(C)C[CH2][Hg][Cl]`, for which the T/C (dose: 6.25 mg/kg/injection, schedule: Q04DX003 (ip), vehicle: Klucel (hydroxypropylcellulose) (HPC)) is 92 % of control and the T/C (dose: 12.5 mg/kg/injection, schedule: Q04DX003 (ip), vehicle: Klucel (hydroxypropylcellulose) (HPC)) was 94 % of control.

For `COC(=O)C1OC1c1ccc(OC)c(OC)c1` (stereo not drawn), the T/C reads like this: under setting [4], 95 % of control; under setting [5], 97 % of control; under setting [6], 101 % of control.

Consider `CC(C)NC(=O)N(c1ccccc1)C(C)C`, for which the T/C by setting is: under setting [9], 98 % of control; under setting [10], 89 % of control; under setting [11], 89 % of control.

As for `CC(=O)Nc1cc([N+](=O)[O-])ccc1C`, the T/C is, setting by setting: under setting [7], 100 % of control; under setting [8], 105 % of control.

`CCSC1=NCCS1`: the T/C reads like this: (dose: 9.5 mg/kg/injection, schedule: Q01DX001 (ip), vehicle: other) 103 % of control; (dose: 19.0 mg/kg/injection, schedule: Q01DX001 (ip), vehicle: other) 112 % of control; (dose: 38.0 mg/kg/injection, schedule: Q01DX001 (ip), vehicle: other) 103 % of control; (dose: 75.0 mg/kg/injection, schedule: Q01DX001 (ip), vehicle: other) 112 % of control; (dose: 150.0 mg/kg/injection, schedule: Q01DX001 (ip), vehicle: other) 101 % of control.

In the case of `CCOC(=O)c1c(N)[nH]c(SSc2[nH]c(N)c(C(=O)OCC)c2C(=O)OCC)c1C(=O)OCC`, the T/C was 99 % of control under setting [9], 96 % of control under setting [10] and 89 % of control under setting [11].

For the compound `O=C(O)/C=C/C(=O)Nc1ccc(N=Nc2ccccc2)cc1`, the T/C (dose: 50.0 mg/kg/injection, schedule: Q01DX009 (ip), vehicle: saline with Tween-80) is 101 % of control; the T/C under setting [12] is 92 % of control; the T/C under setting [13] was 89 % of control.

With `Nc1nc(N)c(N=Nc2ccc(S(=O)(=O)c3ccc(N=Nc4c(N)nc(N)[nH]c4=O)cc3)cc2)c(=O)[nH]1`, the T/C by setting is: under setting [14], 91 % of control; under setting [15], 96 % of control; under setting [16], 91 % of control.

With `Nc1nc2c(ncn2C2OC(CO)C(O)C2O)c(=O)n1N` (stereo not drawn), the T/C runs as follows: under setting [14], 102 % of control; under setting [15], 101 % of control; under setting [16], 95 % of control.

With `O=C(/C=C/c1ccc([N+](=O)[O-])cc1)c1ccc(Cl)cc1`, the T/C by setting is: under setting [9], 104 % of control; under setting [10], 94 % of control; under setting [11], 91 % of control.

Take `C[N+](C)(C)Cc1ccc2ccccc2c1Br`: for the setting “dose: 50.0 mg/kg/injection, schedule: Q01DX001 (ip), vehicle: saline”, the T/C is 97 % of control.

In the case of `COc1cc(/C=C2\NC(=O)NC2=O)ccc1O`, the T/C by setting is: under setting [13], 86 % of control; under setting [17], 90 % of control.

With `CCCCCCCCC1SC1CCCCCCCCOC(=O)CCCCCCCC1SC1CCCCCCCC` (stereo not drawn), the T/C by setting is: under setting [12], 101 % of control; under setting [13], 93 % of control; under setting [17], 91 % of control.

As for `C=C(Br)C(C)(C)C`, the T/C is, setting by setting: (dose: 50.0 mg/kg/injection, schedule: Q01DX009 (ip), vehicle: saline) 101 % of control; (dose: 100.0 mg/kg/injection, schedule: Q01DX009 (ip), vehicle: saline) 101 % of control; (dose: 200.0 mg/kg/injection, schedule: Q01DX009 (ip), vehicle: saline) 101 % of control.

In the case of `O=C(OCc1ccccc1CN1CCCCC1)c1cccc(Cl)c1`, the T/C reads like this: under setting [1], 109 % of control; under setting [2], 98 % of control; under setting [3], 91 % of control.

On to `COc1ccccc1/C=N/N=C(/N)N[N+](=O)[O-]`, for which the T/C is, setting by setting: (dose: 100.0 mg/kg/injection, schedule: Q01DX001 (ip), vehicle: Klucel (hydroxypropylcellulose) (HPC)) 102 % of control; (dose: 200.0 mg/kg/injection, schedule: Q01DX001 (ip), vehicle: Klucel (hydroxypropylcellulose) (HPC)) 101 % of control; (dose: 400.0 mg/kg/injection, schedule: Q01DX001 (ip), vehicle: Klucel (hydroxypropylcellulose) (HPC)) 98 % of control.

Take `CC12CCC(O)CC1CCC1C3CC/C(=C\c4ccco4)C(=O)C3(CCC#N)CCC12` (stereo not drawn): the T/C runs as follows: (dose: 100.0 mg/kg/injection, schedule: Q01DX001 (sc), vehicle: steriod suspending solution) 108 % of control; (dose: 200.0 mg/kg/injection, schedule: Q01DX001 (sc), vehicle: steriod suspending solution) 106 % of control; (dose: 400.0 mg/kg/injection, schedule: Q01DX001 (sc), vehicle: steriod suspending solution) 106 % of control.

With `Cc1ccc(S(=O)(=O)N2c3ccccc3-c3ccccc3C(=O)C2Br)cc1` (stereo not drawn), the T/C under setting [4] was 105 % of control, the T/C under setting [5] was 105 % of control and the T/C under setting [6] was 124 % of control.
